# Test results: patent US20250332263A1, “SURFACTANT STABILIZERS” (NOVARTIS AG, priority 2021, published 2025)
# Entries after “also recorded” stand apart in the source; their conditions may differ.
# Tests used:
# Protein 5 = test: Protein stabilization, purity by SEC-UPLC; format: physicochemical; settings: Protein 5 formulation, 0.2% PLX188 or 0.04% PS20, PS80 or VEDS, one month at 30° C.
# Method: A liquid formulation containing Protein 5 was prepared as herein described. […] (FIG. 8). A pull point was taken after this time and used for the following analysis.
# [1] = Surfactant stability under oxidative stress (H2O2); format: physicochemical; settings: 0.25 M and 2.5 M H2O2, 6 days at 40° C., vs non-treated control
# Method: (§1) Polysorbate 20/80 suffers from chemical and enzymatic degradation mechanisms as described earlier. In order to test the amphiphilic surfactants of the disclosure for stability against oxidative and hydrolytic stress, the following forced degradation assay was performed using hydrogen peroxide and various buffers to mimic those stress conditions. The aim was to mimic chemical degradation pathways that surfactants would encounter during shelf life.
# (§2) H2O2(0.25 M and 2.5 M) was added to formulations containing surfactants and subsequently incubated for 6 days at 40° C. in order to mimic oxidative stress. In addition, surfactants were added to different buffer types (e.g., histidine, citrate, phosphate and succinate buffer) and exposed to accelerated degradation stress such as temperature stress (50° C. for 1 month) at different pH (5.5 and 6.5) in order to mimic chemical degradation pathways (e.g., oxidation, hydrolysis). Control samples were frozen to avoid degradation (FZ). Chromatography methods were used to determine the surfactant content of formulations after accelerated conditions by comparing it to the amount of surfactant spiked into the buffer at the beginning of the experiment.
# [2] = Surfactant stability under pH and temperature stress in different buffers; format: physicochemical; settings: pH 5.5 and 6.5, 50° C. for 1 month, vs frozen control (FZ)
# Method: as §1, §2
# [3] = system: host cell proteins (HCPs) of Protein 4; test: Enzymatic degradation of surfactant in protein 4 formulation; format: physicochemical; settings: 0.02% PS80 or 0.04% other surfactants, one month at 5° C. or 40° C., HPLC
# Source text: Therefore, a formulation containing protein 4 also contains the enzymes responsible for polysorbate degradations and it is a suitable proxy for testing the propensity of enzymatic degradation during shelf life in real-world conditions.
# [4] = Quiescence stability study, oxidative and hydrolytic degradation of surfactant in Protein 2 formulation; settings: six months at 25° C.; for surfactant content left: HPLC main peak
# Method: A pull point was taken every month and a half (TO, T1.5m, T3m, T4.5m and T6m) and frozen for storage.
# The surfactant content was measured for all pull points of a specific surfactant in a single series by HPLC and the analysis was performed by a standard baseline correction followed by integration of the main peak, representing the integer (not degraded) surfactant.
# dendritic cells = test: Dendritic cell activation; format: cell-based, human; settings: 48 h surfactant incubation, compared to LPS activated DC and no-treatment control
# Method: Dendritic cell activation: Human whole blood was used to extract monocytes using MACS (magnetic activated cell sorting) according to manufacturer's instructions (Miltenyi Biotec Order no. 130-114-980). Cells were incubated for 6 days in respective differentiation media (Miltenyi DC differentiation medium order no. 130-094-812) resulting in dendritic cells. Cells were incubated in medium with surfactants in question for 48 h and subsequently stained for cell activation using fluorescently labeled antibodies (Mouse Anti-Human CD14 PerCP-Cy5.5 order no. 562692 from BD to check monocyte negative; Mouse Anti-Human CD11c BV605 from BD to check dendritic cell differentiation and Mouse Anti-Human CD80 FITC order no. 557226 from BD to check cell activation).
# Platelets = test: Inhibition of platelet aggregation, Whole Blood Aggregometry (WBA); format: cell-based, human; settings: 0.04% or 0.01% surfactant, 10 minutes at 37° C.; agonists AA, TRAP6, collagen, ADP
# Method: Human whole blood of 6 healthy volunteers was incubated with 0.04% or 0.01% surfactants for 10 minutes at 37° C. Saline solution was used as negative control. Platelets were activated with four independent agonists: arachidonic acid (AA), thrombin receptor activator peptide (TRAP6), collagen and ADP. Aggregation was measured through Whole Blood Aggregometry (WBA).
# Whole Blood Aggregometry (WBA) consists of immerging electrodes into whole blood which measure the impedance between them. The addition of a platelet agonist activates the aggregation, resulting in an increase of impedance over time. This increase can be compared between a negative control and a testing sample to derive the degree of platelet inhibition.
# protein 1 = test: Equilibrium surface tension, pendant-drop tensiometer (protein displacement at air/water interface); format: physicochemical; settings: surfactant in histidine buffer, absence or presence of protein 1, compared with protein 1 without surfactant; 60 min
# Method: The aim of this experiment was to investigate the type of stabilization mechanism which the surfactants employ in protein-containing formulations. A Pendant-Drop Tensiometer was utilized to determine protein (API) displacement by surfactants at the air/water interface. Surfactant interface saturation mitigates the risk of interfacial stress for proteins and associated negative effects potentially impacting protein quality attributes.
# The protein corresponding buffer was prepared and sterile filtered using a 0.22 μm filter unit. The surfactant in question was added into the buffer using a 5% stock solution as described earlier.
# The buffer surfactant mix was aliquoted in 2 Nalgene bottles. To one of the two bottles was added the respective API in question to reach a final concentration of 1 mg/mL for protein 1 and 10 mg/mL for proteins 2 and 3.
# Equilibrium surface tension was measured using the PAT-1M tensiometer (Sinterface). The system was rinsed 12 times with the sample to be measured. A hanging drop of constant volume (20 μL) was measured every second for 60 min. Drug substance samples with and without surfactants were measured at the same day to avoid operator, sample and day to day variations.
# [5] = system: protein 1 (disordered protein); test: Orbital shaking forced degradation, particle count by micro-flow-imaging, Protein 1; format: physicochemical; settings: orbital shaking 250 rpm, ambient temperature, 0 h, 7 h and 24 h
# Method: The API corresponding buffer was prepared with 20 mM Histidine, 220 mM Succrose pH 5.8 in water.
# The aim of this experiment was to investigate the effect of amphiphilic surfactants to protect proteins from interfacial stress, such as that which is present during manufacturing, transport and application. As a proxy for this stress the forced degradation assay (orbital shaking), applying mechanical stress, was used in order to determine whether chosen surfactants stabilize three different protein API's (disordered protein, Fab, mAb) against mechanical stress (mitigating particle creation (protein aggregates)).
# 1.2 mL of sample was aliquoted in each 6R vial (2x). Vials of same sample were pooled after the study in order to generate enough volume for all analytical testing.
# Mechanical stress was generated through orbital shaking at 250 rpm at ambient temperature for 0 h, 7 h, 24 h and 48 h using an orbital shaker. Samples were subsequently analyzed via micro-flow-imaging (MFI). Particle count >2 μm/mL was visualized by MF.
# Basophile cells = test: Basophile activation assay (B-cell activation); format: cell-based, human; settings: compared to polysorbate and B-cell activating positive control
# Method: Basophile activation assay: Human whole blood was used to purify B-cells using an in vitro B-cell activation kit (Cellonic, Basotest, Cat #10-0500). Basophile cells were incubated in 100 μL 1×wash buffer containing the final surfactant concentration as the correct dilutions were prepared beforehand. Cell labeling, lysis and fixation was performed according to manufacturer instructions and subsequently analyzed using a BD FORTESSA flow cytometer. Leucocytes are gated via forward and sideward scatter. The Basophile subpopulation was gated on CD123 and IgE staining. Finally, activated Basophile cells were identified via CD203c and CD63 gating. All fluorescently labeled antibodies were provided in the kit stated above.
substance,measurement,setting,value
Polysorbate 20 [PS20],"protein purity, relative comparison between surfactants",Protein 5,lower purity
same,"sum of impurities, relative comparison between surfactants",Protein 5,higher impurities
Polysorbate 80 [PS80],surfactant content after oxidative stress (H2O2),[1],stable; also recorded: minor loss
same,surfactant content after pH and temperature stress,[2]; citrate buffer,stable
same,surfactant content after pH and temperature stress,[2]; histidine buffer,decreased content
same,surfactant content after pH and temperature stress,[2]; phosphate buffer,decreased content
same,surfactant content after pH and temperature stress,[2]; succinate buffer,decreased content
same,surfactant content (enzymatic degradation by HCPs),[3],Degradation is observed both at 5 °C and 40 °C
same,surfactant content left,[4],~5%
Vitamin E dimethyl glutarate [VEDG3.3],"mean fluorescence intensity (MFI) fold change, dendritic cell (DC) activation",dendritic cells; listed as VEDG 3.3,perform better than TPGS1000; also recorded: no DC activation
same,inhibition of platelet aggregation,Platelets,comparable platelet inhibition values as PS80
Vitamin E dimethyl glutarate [VEDG2.2],equilibrium surface tension / surface activity,protein 1,even higher surface activity resulting in significant drop of surface tension
same,particle count >2 μm/mL,[5],perform better than TPGS-1000
same,number of activated B cells (%) upon surfactant treatment,Basophile cells,lower level of B-cell activation than TPGS1000
same,"mean fluorescence intensity (MFI) fold change, dendritic cell (DC) activation",dendritic cells; listed as VEDG 2.2,perform better than TPGS1000; also recorded: no DC activation
same,surfactant content (enzymatic degradation by HCPs),[3],not affected by enzymatic degradation
same,surfactant content left,[4],88-90%
same,susceptibility to chemical degradation (surfactant content over time),[4]; pull points every 1.5 months,minimal susceptibility to chemical degradation
